Experimental data taken from patent US12191014B1, “Personal analysis and chronotherapy” (CERNER INNOVATION, INC., priority 2013, dated 2025).

Columns and labels:
[1] = system: blood pressure of patients; details: cited from earlier work; for effect on asleep versus awake SBP and DBP means: ACEI, evening or bedtime administration; for therapeutic effect on sleeping BP: ARB, bedtime in comparison with morning ingestion schedule
blood pressure patient = experiment: Example 1: evaluation pack trial of Losartan formulations against diagnostic targets; type: in vivo, human
Method: Example 1: A blood pressure patient is currently medicated, but appears to be medicated at an insufficient level. For example, the patient has been taking 50 mg of Losartan at various ingestion times, but has experienced some severe headaches and nose bleeds in the afternoon particularly on stressful days.
In an embodiment, the evaluation package includes four different formulations labeled A, B, 3A, and 5A arranged in separable columns of constant medication 1027, 1028, 1025, 1030, and 1010, that may be separated by manually tearing package 1000 along perforated divisions 1096, 1097, 1098, and 1099. In an embodiment, dose pack 1000 is formed by selectively applying an adhesive to a foil backing layer to adhere the foil to transparent plastic front layer 1012 containing pills such as 1013 as shown in FIG. 10. In an embodiment, a label such as “5A” is provided on the dose itself such as label 1015 on pill 1013 as viewable in dose display container 1014, and/or on the packaging in label 1011 of constant formulation dosepack represented in column 1010. Advantageously, a patient tears along a perforation 1096 while taking dose A, and only need carry a single column such as 1027 while taking an “A” formulation dose. Similarly columns 1026, 1025, 1030 and 1010 are separable by perforations 1096, 1097, 1098 and 1099. An embodiment of a constant formulation dose pack has 32 cycles of dosage. An embodiment of a constant formulation dose pack has 10 cycles of dosage.
In an embodiment, the “A” formulation corresponds to a pulsatile application of 100 mg Losartan that applies medication nominally 20 minutes after ingestion, the “3A” formulation delays application of 100 mg of Losartan to 3 hours after ingestion. The “5A” formulation delays application of 100 mg of Losartan to 5 hours after ingestion. The “B” formulation is 5 mg amlodipine besylate that applies medication approximately 5 hours after ingestion. In an embodiment the dose sequence spectrum is chosen to center the medication application around a typical peak level. For example, with blood pressure medicine application, a peak plasma level between midnight and 6 a.m. would provide dosage delays centered about 3 a.m. for a patient who is thought to be a normal dipper. An embodiment puts at least one dosage application time in a period of normal peak, for example, between midnight and 6 a.m. for blood pressure application. In an embodiment, different dose levels are provided, such as a trial with 50 mg Losartan, or 150 mg Losartan for the same application time.
Turning now to FIG. 2, there is depicted in 100 a method for a computer to execute a method of personal health evaluation. At 205, a patient manager such as 140 is configured through a clinician evaluation template to present results to the patient on patient interface 141 after the clinician has released the information to the patient for viewing, explanation. In an embodiment a template includes a monitor identifier, a patient identifier, such as social security number and/or full name and zip code, and an identification code for the dose pack such as product ID code “AB27YAM” shown in identifier 1050. In an embodiment the template includes a set of patient instructions to guide patient through the use of the monitor device. In an embodiment, the patient is instructed to wear the monitor continuously with unmonitored stretches of no greater than a half an hour. […] In an embodiment, the template includes information such as gender (male or female), weight, height, body mass index, other conditions, other mediations, patient history, patient age, a diagnostic target, a clinical input to be monitored, a period statistic to be measured, a period variability measure to be evaluated, a variation, etc. […]

hypertensive subjects = experiment: 32-day losartan administration-time study with NIBP/SBP time series and spectral analysis; type: in vivo, human
Method: Because dipping status is determined by (a) sleep BP and (b) awake BP, it might be expected that the 2 determinants would have equal weight. […] Although there is evidence that an extreme dipping pattern may lead to nocturnal cerebral ischemia, there is also evidence that nondippers are at greater risk for cardiovascular morbidity than dippers, both for cardiovascular events and for progression of kidney disease. […] This is exactly what we have observed with losartan.
To illustrate the advantages of the present technology, a, a series of alternate schedules for administering a single, strong 100 mg oral dose of the rapidly-absorbed angiotensin receptor blocker, losartan, were explored (03:00; 09:00; 21:00; etc.). Subjects […] informed consent according to applicable U.S. law and regulations. Baseline drug-holiday NIBP measurements were collected in each subject for a period of 32 days. Subjects who had other comorbid health conditions besides hypertension were excluded, as were subjects who required two or more antihypertensive medications for blood pressure control.
Under the experimental protocol, a two-week wash-out interval was interposed between a 32-day treatment period with one administration time and the next 32-day period. Subjects were randomized as to which administration time sequence.
All of the 32-day timing regimens were monitored so as to establish administration timing compliance with a timing precision of +15 min. […]
Records were randomly selected from a patient health records data warehouse, which is derived from Cerner electronic health record (EHR) from 100% of episodes of care that are incident upon the participating health institutions. […] The SBP data is cast into the form of a time series, and analyzed the sequences using the open-source R statistical packages psd, seewave, and tuneR. […]

In the case of `CCOC(=O)[C@H](CCc1ccccc1)N[C@H]1CCc2ccccc2N(CC(=O)O)C1=O` [benazepril], the “effect on asleep versus awake SBP and DBP means” value [1] is given as “more marked effect on the asleep than awake”.
In the case of `C[C@H](CS)C(=O)N1CCC[C@H]1C(=O)O` [captopril], the “effect on asleep versus awake SBP and DBP means” value [1] is given as “more marked effect on the asleep than awake”.
For `CCOC(=O)[C@H](CCc1ccccc1)N[C@@H](C)C(=O)N1CCC[C@H]1C(=O)O` [enalapril], the “effect on asleep versus awake SBP and DBP means” value [1] is given as “more marked effect on the asleep than awake”.
In the case of `CCCCC1=NC2(CCCC2)C(=O)N1Cc1ccc(-c2ccccc2-c2nnn[nH]2)cc1` [irbesartan], the “therapeutic effect on sleeping BP” value [1] is listed as “greater therapeutic effect on sleeping BP”.
For `NCCCC[C@H](N[C@@H](CCc1ccccc1)C(=O)O)C(=O)N1CCC[C@H]1C(=O)O` [lisinopril], the “effect on asleep versus awake SBP and DBP means” value [1] is listed as “more marked effect on the asleep than awake”.
With `CCCCc1nc(Cl)c(CO)n1Cc1ccc(-c2ccccc2-c2nn[nH]n2)cc1` [losartan] the dipping pattern (blood pressure patient; 100 mg at 21:00) was “achieved a normal dipping pattern”, the “entropy relative to untreated regimen” value (blood pressure patient; 100 mg at 21:00) was “greatly improved entropy” and the entropy versus target (blood pressure patient; 100 mg at 21:00) was “acceptable entropy”. The “max SBP versus target” value (blood pressure patient; 100 mg at 21:00) was “unacceptable max SBP”, the “range of SBP versus target” value (blood pressure patient; 100 mg at 21:00) was “unacceptable range” and the rolloff (blood pressure patient; 100 mg at 21:00) was “acceptable rolloff improvement”. For the same molecule, the significance versus target (blood pressure patient; 100 mg at 21:00) was “acceptable significance”, the stability of rhythm (blood pressure patient; 100 mg at 21:00) was “improved stability of rhythm” and the desired targets met (blood pressure patient; 100 mg at 21:00, compared with untreated regimen) was 5 of 7. The “therapeutic effect on sleeping BP” value [1] was “greater therapeutic effect on sleeping BP”, the “reduction in average blood pressure” value (hypertensive subjects; 100 mg oral dose, all dosing schedules (03:00; 09:00; 21:00), 32-day treatment periods) was “reduction in average blood pressure” and the “phase-slips between circadian BP and drug administration” value (hypertensive subjects; 100 mg, 21:00 administration time) was “occasionally detected”. For the same molecule, the “normalization of dipping pattern” value (hypertensive subjects; administration such that peak plasma levels occur prior to midnight or prior to 06:00) was “can normalize extreme dippers, non-dippers, and risers and convert them to normal dippers”.
In the case of `CCC[C@H](N[C@@H](C)C(=O)N1[C@H](C(=O)O)C[C@@H]2CCCC[C@@H]21)C(=O)OCC` [perindopril], the “effect on asleep versus awake SBP and DBP means” value [1] is given as “more marked effect on the asleep than awake”.
For `CCOC(=O)[C@H](CCc1ccccc1)N[C@@H](C)C(=O)N1Cc2ccccc2C[C@H]1C(=O)O` [quinapril], the “effect on asleep versus awake SBP and DBP means” value [1] is given as “more marked effect on the asleep than awake”.
In the case of `CCOC(=O)[C@H](CCc1ccccc1)N[C@@H](C)C(=O)N1[C@H](C(=O)O)C[C@@H]2CCC[C@@H]21` [ramipril], the “effect on asleep versus awake SBP and DBP means” value [1] is listed as “more marked effect on the asleep than awake”.
For `CCOC(=O)[C@H](CCc1ccccc1)N[C@@H](C)C(=O)N1CC2(C[C@H]1C(=O)O)SCCS2` [spirapril], the “effect on asleep versus awake SBP and DBP means” value [1] is listed as “more marked effect on the asleep than awake”.
For `CCCc1nc2c(C)cc(-c3nc4ccccc4n3C)cc2n1Cc1ccc(-c2ccccc2C(=O)O)cc1` [telmisartan], the “therapeutic effect on sleeping BP” value [1] is given as “greater therapeutic effect on sleeping BP”.
In the case of `CCOC(=O)[C@H](CCc1ccccc1)N[C@@H](C)C(=O)N1[C@H](C(=O)O)C[C@H]2CCCC[C@@H]21` [trandolapril], the “effect on asleep versus awake SBP and DBP means” value [1] is given as “more marked effect on the asleep than awake”.
In the case of `CCCCC(=O)N(Cc1ccc(-c2ccccc2-c2nnn[nH]2)cc1)[C@H](C(=O)O)C(C)C` [valsartan], the “therapeutic effect on sleeping BP” value [1] is given as “greater therapeutic effect on sleeping BP”.
In the case of `C[C@H](CSC(=O)c1ccccc1)C(=O)N1C[C@@H](Sc2ccccc2)C[C@H]1C(=O)O` [zofenopril], the “effect on asleep versus awake SBP and DBP means” value [1] is given as “more marked effect on the asleep than awake”.
